Reference: patent publication US20260317344A1, “EGFR INHIBITORS FOR TREATING DISEASE” (BLOSSOMHILL THERAPEUTICS, INC., priority 2023, published 2026)

Tests used:
EGFR (D770_N771insNPG) = EGFR (D770_N771insNPG) (Homo sapiens, UniProt P00533, INS770NPG); test: HotSpot radiometric kinase assay, inhibition of EGFR (D770_N771insNPG) mutant; type: biochemical; conditions: 33P ATP, room temperature, 120 m
Summary of the method: (§1)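 Radiometric filter-binding format: ATP plus 33P-ATP ([…]) was added about 20 min after compound to kinase and substrate in HEPES pH 7.5 buffer with Mg2+, EGTA, Brij35, BSA, vanadate, DTT and 1% DMSO. After 120 min at room temperature, reactions were spotted on P81 paper and washed in phosphoric acid; IC50 values fitted.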

NCI-H1975 cells = test: 5-Day CellTiter Glo (CTG) cell proliferation assay, NCI-H1975; type: cell-based; conditions: Homo sapiens; NCI-H1975 cells (L858R/T790M EGFR), 5-day CTG proliferation, 120 hours; read-out: H1975 IC50
Summary of the method: (§2)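 Proliferation of EGFR-driven NSCLC cells was scored as CellTiter-Glo 2.0 luminescence after a 5-day (120 h) incubation with compounds in 9 doses. IC50 values came from the dose-response curves.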

HCC827 cells = test: 5-Day CellTiter Glo (CTG) cell proliferation assay, HCC827; type: cell-based; conditions: Homo sapiens; HCC827 cells (d746-750 EGFR), 5-day CTG proliferation, 120 hours; read-out: HCC827 IC50
Summary of the method: as §2

EGFR (D746-750/C797S) = EGFR (D746-750/C797S) (Homo sapiens, UniProt P00533, C797S/DEL746-750); test: HotSpot radiometric kinase assay, inhibition of EGFR 746-750/C797S mutant; type: biochemical; conditions: 33P ATP, room temperature, 120 m
Summary of the method: as §1

EGFR (D746-750) = EGFR (D746-750) (Homo sapiens, UniProt P00533, DEL746-750); test: HotSpot radiometric kinase assay, inhibition of EGFR 746-750 mutant; type: biochemical; conditions: 33P ATP, room temperature, 120 m
Summary of the method: as §1

[1] = target: T1, pEGFR, A431 cells (wildtype EGFR) (Homo sapiens, UniProt P00533); test: Cellular EGFR phosphorylation assay (LANCE Ultra TR-FRET) in A431 cells; type: cell-based; conditions: 4 hours at 37° C., 40 ng/mL EGF for the final 10 minutes, read-out: A431 pEGFR IC50
T1 construct: pEGFR (Tyr1068) TR-FRET
Summary of the method: (§3)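 Phospho-EGFR (Tyr1068) measured by TR-FRET in lysates after 4 h compound exposure at 37° C (9 doses, 3-fold steps). A431 cells, seeded at 30 thousand per well, received 40 ng/mL EGF for the last 10 min; PC-9 and NCI-H1975 seeded at 50 thousand per well, unstimulated. IC50 values reported.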

[2] = system: BaF3 cells with engineered EGFR L858R/T790M/C797S; test: 3-Day CellTiter Glo (CTG) cell proliferation assay, BaF3 EGFR L858R/T790M/C797S; type: cell-based; conditions: Mus musculus, 3-day CTG proliferation, 72 hours
Summary of the method: (§4)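 Luminescent ATP read-out (CellTiter-Glo 2.0) after 72 h compound exposure gives IC50 values. BaF3 transgenic cells, one thousand per well, received a nine-dose series and were kept at 37 °C under 5% CO2.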

[3] = system: BaF3 cells with engineered EGFR d746-750/T790M; test: 3-Day CellTiter Glo (CTG) cell proliferation assay, BaF3 EGFR d746-750/T790M; type: cell-based; conditions: Mus musculus; BaF3 EGFR d746-750/T790M cells, 3-day CTG proliferation, 72 hours
Summary of the method: as §4

[4] = target: T2, pEGFR, PC-9 cells (d746-750 EGFR) (Homo sapiens, UniProt P00533, DEL746-750); test: Cellular EGFR phosphorylation assay (LANCE Ultra TR-FRET) in PC-9 cells; type: cell-based; conditions: 4 hours at 37° C., read-out: PC-9 pEGFR IC50
T2 construct: pEGFR (Tyr1068) TR-FRET
Summary of the method: as §3

[5] = target: T3, pEGFR, NCI-H1975 cells (L858R/T790M EGFR) (Homo sapiens, UniProt P00533, L858R/T790M); test: Cellular EGFR phosphorylation assay (LANCE Ultra TR-FRET) in NCI-H1975 cells; type: cell-based; conditions: 4 hours at 37° C., read-out: H1975 pEGFR IC50
T3 construct: pEGFR (Tyr1068) TR-FRET
Summary of the method: as §3

EGFR (L858R/T790M/C797S) = EGFR (L858R/T790M/C797S) (Homo sapiens, UniProt P00533, C797S/L858R/T790M); test: HotSpot radiometric kinase assay, inhibition of EGFR L858R/T790M/C797S mutant; type: biochemical; conditions: 33P ATP, room temperature, 120 m
Summary of the method: as §1

[6] = system: BaF3 cells with engineered EGFR L858R/C797S; test: 3-Day CellTiter Glo (CTG) cell proliferation assay, BaF3 EGFR L858R/C797S; type: cell-based; conditions: Mus musculus, 3-day CTG proliferation, 72 hours
Summary of the method: as §4

PC-9 cells = test: 5-Day CellTiter Glo (CTG) cell proliferation assay, PC-9; type: cell-based; conditions: Homo sapiens; PC-9 cells (d746-750 EGFR), 5-day CTG proliferation, 120 hours; read-out: PC-9 IC50
Summary of the method: as §2

EGFR (D746-750), sequence (P00533 with tags, fused parts or gaps DEL746-750): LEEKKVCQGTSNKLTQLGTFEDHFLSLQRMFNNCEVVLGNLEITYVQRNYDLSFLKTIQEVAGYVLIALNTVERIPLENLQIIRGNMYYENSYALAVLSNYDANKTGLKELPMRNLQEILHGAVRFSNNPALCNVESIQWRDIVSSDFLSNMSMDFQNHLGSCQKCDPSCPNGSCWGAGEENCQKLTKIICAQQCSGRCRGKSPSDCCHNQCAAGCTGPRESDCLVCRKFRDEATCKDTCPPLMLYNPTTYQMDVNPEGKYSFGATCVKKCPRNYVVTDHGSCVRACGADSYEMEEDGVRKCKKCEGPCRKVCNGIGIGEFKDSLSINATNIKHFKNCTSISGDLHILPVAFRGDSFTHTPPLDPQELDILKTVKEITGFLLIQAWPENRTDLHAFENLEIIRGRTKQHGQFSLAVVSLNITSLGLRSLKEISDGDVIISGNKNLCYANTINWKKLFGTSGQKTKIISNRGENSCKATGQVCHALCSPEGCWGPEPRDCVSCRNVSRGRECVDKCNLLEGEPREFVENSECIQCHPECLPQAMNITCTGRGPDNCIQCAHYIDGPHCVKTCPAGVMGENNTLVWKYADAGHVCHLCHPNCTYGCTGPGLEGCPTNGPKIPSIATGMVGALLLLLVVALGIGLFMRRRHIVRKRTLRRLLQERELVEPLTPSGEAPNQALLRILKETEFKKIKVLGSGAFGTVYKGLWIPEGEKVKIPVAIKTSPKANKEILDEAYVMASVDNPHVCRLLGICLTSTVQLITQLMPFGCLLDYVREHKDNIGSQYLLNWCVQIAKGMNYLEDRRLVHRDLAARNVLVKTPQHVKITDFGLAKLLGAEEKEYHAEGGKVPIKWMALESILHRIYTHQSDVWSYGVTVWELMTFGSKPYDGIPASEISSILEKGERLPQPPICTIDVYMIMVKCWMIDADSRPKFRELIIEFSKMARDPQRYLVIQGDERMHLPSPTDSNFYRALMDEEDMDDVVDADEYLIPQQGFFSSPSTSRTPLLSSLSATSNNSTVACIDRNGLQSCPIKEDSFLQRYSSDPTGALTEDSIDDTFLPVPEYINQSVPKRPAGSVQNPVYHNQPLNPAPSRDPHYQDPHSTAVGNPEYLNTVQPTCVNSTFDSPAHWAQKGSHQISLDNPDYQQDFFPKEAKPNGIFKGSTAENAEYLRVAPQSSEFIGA
T2 sequence (P00533 with tags, fused parts or gaps DEL746-750): as above
EGFR (D770_N771insNPG), sequence (P00533 with tags, fused parts or gaps INS770NPG limits assumed): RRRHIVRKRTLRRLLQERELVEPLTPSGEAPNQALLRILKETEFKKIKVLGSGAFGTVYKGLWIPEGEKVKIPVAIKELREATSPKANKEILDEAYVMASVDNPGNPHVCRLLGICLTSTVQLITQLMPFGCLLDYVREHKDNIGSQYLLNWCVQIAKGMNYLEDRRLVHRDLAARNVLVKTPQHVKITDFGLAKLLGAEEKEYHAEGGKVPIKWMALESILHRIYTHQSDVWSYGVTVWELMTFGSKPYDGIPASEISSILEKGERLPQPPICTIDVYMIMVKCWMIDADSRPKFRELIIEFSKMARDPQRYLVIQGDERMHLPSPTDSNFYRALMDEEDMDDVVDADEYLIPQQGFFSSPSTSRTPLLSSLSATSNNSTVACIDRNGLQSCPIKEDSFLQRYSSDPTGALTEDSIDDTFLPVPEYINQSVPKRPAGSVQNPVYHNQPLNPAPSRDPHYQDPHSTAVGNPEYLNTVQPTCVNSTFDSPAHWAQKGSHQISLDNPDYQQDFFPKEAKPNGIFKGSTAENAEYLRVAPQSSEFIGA
EGFR (D746-750/C797S), sequence (P00533 with tags, fused parts or gaps DEL746-750/C797S): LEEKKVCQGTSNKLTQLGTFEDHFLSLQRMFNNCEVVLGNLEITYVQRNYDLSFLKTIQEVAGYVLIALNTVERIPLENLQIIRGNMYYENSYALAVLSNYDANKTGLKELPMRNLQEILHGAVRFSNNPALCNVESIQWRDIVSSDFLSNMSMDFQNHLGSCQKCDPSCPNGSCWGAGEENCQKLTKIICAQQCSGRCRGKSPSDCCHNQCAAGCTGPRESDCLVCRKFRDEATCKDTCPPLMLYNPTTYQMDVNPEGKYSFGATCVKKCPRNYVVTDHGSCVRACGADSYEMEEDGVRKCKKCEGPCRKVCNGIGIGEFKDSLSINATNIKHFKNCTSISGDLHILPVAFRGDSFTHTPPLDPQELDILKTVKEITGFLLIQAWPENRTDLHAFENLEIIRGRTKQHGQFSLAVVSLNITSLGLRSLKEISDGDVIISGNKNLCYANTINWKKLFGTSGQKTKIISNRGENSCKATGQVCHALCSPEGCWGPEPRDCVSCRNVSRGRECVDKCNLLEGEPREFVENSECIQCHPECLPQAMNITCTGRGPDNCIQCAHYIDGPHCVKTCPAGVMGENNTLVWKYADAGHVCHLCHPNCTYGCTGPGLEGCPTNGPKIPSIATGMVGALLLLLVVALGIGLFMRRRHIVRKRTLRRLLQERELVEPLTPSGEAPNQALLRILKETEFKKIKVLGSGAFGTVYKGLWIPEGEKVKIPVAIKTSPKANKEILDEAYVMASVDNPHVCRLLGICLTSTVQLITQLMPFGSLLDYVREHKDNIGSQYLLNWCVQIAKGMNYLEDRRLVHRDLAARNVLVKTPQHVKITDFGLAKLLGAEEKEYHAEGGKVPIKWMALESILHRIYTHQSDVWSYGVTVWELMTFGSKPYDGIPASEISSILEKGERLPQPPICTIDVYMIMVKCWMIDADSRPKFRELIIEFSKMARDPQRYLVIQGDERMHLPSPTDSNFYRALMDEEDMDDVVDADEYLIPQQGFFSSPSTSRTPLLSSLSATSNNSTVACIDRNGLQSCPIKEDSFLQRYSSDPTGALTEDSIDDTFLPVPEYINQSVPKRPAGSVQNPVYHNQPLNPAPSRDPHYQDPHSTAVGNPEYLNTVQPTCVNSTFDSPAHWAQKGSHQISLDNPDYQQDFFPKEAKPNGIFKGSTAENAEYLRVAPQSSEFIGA

Structure (SMILES): Cc1nn(C)c2c1-c1cc3c(n[nH]c3cn1)/C=C/c1c(OCC#N)nn(CCO)c1CN1CCC[C@@H]1C(C)O2 (single isomer, unassigned) [Ex. 50]
- IC50 (EGFR (D770_N771insNPG)): 0.21 nM
- IC50 (NCI-H1975 cells): 5.55 nM
- IC50 (HCC827 cells): 0.41 nM
- IC50 (EGFR (D746-750/C797S)): 0.68 nM
- IC50 (EGFR (D746-750)): 0.19 nM
- IC50 [1]: 19.3 nM
- IC50 [2]: 1.14 nM
- IC50 [3]: 2.99 nM
- IC50 [4]: 1.07 nM
- IC50 [5]: 3.43 nM
- IC50 (EGFR (L858R/T790M/C797S)): 0.39 nM
- IC50 [6]: 0.12 nM
- IC50 (PC-9 cells): 0.51 nM

Structure (SMILES): CCN1Cc2c(c(OCC#N)nn2CCO)/C=C/c2n[nH]c3cnc(cc23)-c2c(C)nn(C)c2O[C@H](C)C1 [Ex. 36, {[(10R,17E)-12-ethyl-14-(2-hydroxyethyl)-6,8,10-trimethyl-2,10,11,12,13,14-hexahydro-8H-5,3-(azenometheno)tripyrazolo[3,4-f:3′,4′-j:4″,3″-n][1,4]oxazacyclopentadecin-16-yl]oxy}acetonitrile]
- IC50 (EGFR (D770_N771insNPG)): 0.14 nM
- IC50 (EGFR (D746-750/C797S)): 0.29 nM
- IC50 (EGFR (D746-750)): 0.1 nM
- IC50 [2]: 1.97 nM
- IC50 [3]: 2.13 nM
- IC50 (EGFR (L858R/T790M/C797S)): 0.13 nM
- IC50 [6]: 0.47 nM

Structure (SMILES): Cc1nc2cc3c(n[nH]c13)/C=C/c1c(OC(C)C)nn(CCO)c1CN(C)C[C@H](C)Oc1c-2cnn1C [Ex. 40, 2-[(10S,17E)-8,10,12,20-tetramethyl-16-[(propan-2-yl)oxy]-2,8,10,11,12,13-hexahydro-14H-5,3-(azenometheno)tripyrazolo[3,4-f:3′,4′-j:4″,3″-n][1,4]oxazacyclopentadecin-14-yl]ethan-1-ol]
- IC50 (EGFR (D770_N771insNPG)): 1.63 nM
- IC50 (EGFR (D746-750/C797S)): 0.97 nM
- IC50 (EGFR (D746-750)): 0.35 nM
- IC50 [1]: 14.7 nM
- IC50 [2]: 0.92 nM
- IC50 [3]: 3.34 nM
- IC50 [4]: 11.4 nM
- IC50 [5]: 1.6 nM
- IC50 (EGFR (L858R/T790M/C797S)): 0.45 nM
- IC50 [6]: 0.28 nM

Structure (SMILES): Cc1nn(CCO)c2c1/C=C/c1n[nH]c3cnc(cc13)-c1c(C)nn(C)c1O[C@@H](C)CN(C)C2 [Ex. 41, 2-[(10S,17E)-6,8,10,12,16-pentamethyl-2,8,10,11,12,13-hexahydro-14H-5,3-(azenometheno)tripyrazolo[3,4-f:3′,4′-j:4″,3″-n][1,4]oxazacyclopentadecin-14-yl]ethan-1-ol]
- IC50 (EGFR (D770_N771insNPG)): 0.08 nM
- IC50 (EGFR (D746-750/C797S)): 0.23 nM
- IC50 (EGFR (D746-750)): 0.08 nM
- IC50 [2]: 3.74 nM
- IC50 [3]: 13.8 nM
- IC50 (EGFR (L858R/T790M/C797S)): 0.23 nM
- IC50 [6]: 0.16 nM

Structure (SMILES): CCOc1nn([C@@H](C)CO)c2c1/C=C/c1n[nH]c3cnc(cc13)-c1c(C)nn(C)c1OC[C@@H](C)N(C1CC1)C2 [Ex. 111, (2S)-2-[(11R,17E)-12-cyclopropyl-16-ethoxy-6,8,11-trimethyl-2,8,10,11,12,13-hexahydro-14H-5,3-(azenometheno)tripyrazolo[3,4-f:3′,4′-j:4″,3″-n][1,4]oxazacyclopentadecin-14-yl]propan-1-ol]
- IC50 (NCI-H1975 cells): 3.12 nM
- IC50 (HCC827 cells): 0.43 nM
- IC50 [1]: 1.46 nM
- IC50 [2]: 1.11 nM
- IC50 [3]: 0.78 nM
- IC50 [4]: 1.06 nM
- IC50 [5]: 2.08 nM
- IC50 [6]: 0.11 nM
- IC50 (PC-9 cells): 1.52 nM

Structure (SMILES): CCOc1nn(CCO)c2c1/C=C/c1n[nH]c3cnc(cc13)-c1c(C)nn(C)c1O[C@@H](C)CN(C1CC1)C2 [Ex. 113, 2-[(10S,17E)-12-cyclopropyl-16-ethoxy-6,8,10-trimethyl-2,8,10,11,12,13-hexahydro-14H-5,3-(azenometheno)tripyrazolo[3,4-f:3′,4′-j:4″,3″-n][1,4]oxazacyclopentadecin-14-yl]ethan-1-ol]
- IC50 (NCI-H1975 cells): 1.4 nM
- IC50 (HCC827 cells): 0.45 nM
- IC50 [1]: 11.1 nM
- IC50 [2]: 0.91 nM
- IC50 [3]: 1.18 nM
- IC50 [4]: 1.98 nM
- IC50 [5]: 1.58 nM
- IC50 [6]: 0.11 nM
- IC50 (PC-9 cells): 0.68 nM

Structure (SMILES): CCOc1nn(CCO)c2c1/C=C/c1n[nH]c3cnc(cc13)-c1c(C)nn(C)c1OC[C@@H](C)N(C1CC1)C2 [Ex. 114, 2-[(11R,17E)-12-cyclopropyl-16-ethoxy-6,8,11-trimethyl-2,8,10,11,12,13-hexahydro-14H-5,3-(azenometheno)tripyrazolo[3,4-f:3′,4′-j:4″,3″-n][1,4]oxazacyclopentadecin-14-yl]ethan-1-ol]
- IC50 (NCI-H1975 cells): 27.1 nM
- IC50 (HCC827 cells): 1.66 nM
- IC50 [1]: 22.2 nM
- IC50 [2]: 1.84 nM
- IC50 [3]: 3.72 nM
- IC50 [4]: 3.56 nM
- IC50 [5]: 5.67 nM
- IC50 [6]: 0.42 nM
- IC50 (PC-9 cells): 4.87 nM

Structure (SMILES): CCOc1nn(CCO)c2c1/C=C/c1n[nH]c3c(C)nc(cc13)-c1c(C)nn(C)c1O[C@@H](C)[C@H]1CCCN1C2 [Ex. 177, 2-[(8aR,9S,19E)-1-ethoxy-9,11,13,21-tetramethyl-7,8,8a,9,11,17-hexahydro-6H-14,16-(azenometheno)tripyrazolo[3,4-f:3′,4′-j:4″,3″-n]pyrrolo[2,1-c][1,4]oxazacyclopentadecin-3(4H)-yl]ethan-1-ol]
- IC50 (NCI-H1975 cells): 2.6 nM
- IC50 (HCC827 cells): 0.39 nM
- IC50 [1]: 8.86 nM
- IC50 [2]: 0.97 nM
- IC50 [3]: 0.88 nM
- IC50 [4]: 1.01 nM
- IC50 [5]: 1.38 nM
- IC50 [6]: 0.07 nM
- IC50 (PC-9 cells): 1.43 nM

Structure (SMILES): CCOc1nn(CCO)c2c1/C=C/c1n[nH]c3c(C)nc(cc13)-c1c(C)nn(C)c1O[C@H](C)[C@H]1CCCN1C2 [Ex. 178]
- IC50 (NCI-H1975 cells): 0.93 nM
- IC50 (HCC827 cells): 0.39 nM
- IC50 [1]: 12.5 nM
- IC50 [2]: 0.59 nM
- IC50 [3]: 0.67 nM
- IC50 [4]: 0.81 nM
- IC50 [5]: 1.29 nM
- IC50 [6]: 0.06 nM
- IC50 (PC-9 cells): 1.02 nM

Structure (SMILES): CCOc1nn([C@@H](C)CO)c2c1/C=C/c1n[nH]c3c(C)nc(cc13)-c1c(C)nn(C)c1O[C@@H](C)[C@H]1CCCN1C2 [Ex. 179, (2S)-2-[(8aR,9S,19E)-1-ethoxy-9,11,13,21-tetramethyl-7,8,8a,9,11,17-hexahydro-6H-14,16-(azenometheno)tripyrazolo[3,4-f:3′,4′-j:4″,3″-n]pyrrolo[2,1-c][1,4]oxazacyclopentadecin-3(4H)-yl]propan-1-ol]
- IC50 (NCI-H1975 cells): 1.41 nM
- IC50 (HCC827 cells): 0.23 nM
- IC50 [1]: 8.64 nM
- IC50 [2]: 1.47 nM
- IC50 [3]: 0.88 nM
- IC50 [4]: 0.69 nM
- IC50 [5]: 1.38 nM
- IC50 [6]: 0.1 nM
- IC50 (PC-9 cells): 0.78 nM
